The values that follow come from ChEMBL document CHEMBL1121473, “Conformationally defined aromatic amino acids. Synthesis and stereochemistry of 2-endo- and 2-exo-amino-1,2,3,4-tetrahydro-1,4-ethanonaphthalene-2-carboxylic acids (2-endo- and 2-exo-aminobenzobicycle[2.2.2]octene-2-carboxylic acids)” (J Med Chem, 1980).

Test [1] concerns Enterococcus faecalis. The test can be described thus: ability to inhibit the decarboxylation of L-phenyl-alanine using a crude enzyme preparation of phenylalanine decarboxylase (PAD) from Streptococcus faecalis, at 1.76 mM concentration.
Test [2] concerns Enterococcus faecalis. The test can be described thus: ability to inhibit the decarboxylation of L-phenyl-alanine using a crude enzyme preparation of phenylalanine decarboxylase (PAD) from Streptococcus faecalis, at 1 mM concentration.
The test system of test [3] is Enterococcus faecalis. Briefly: Ability to inhibit the decarboxylation of L-phenyl-alanine using a crude enzyme preparation of phenylalanine decarboxylase (PAD) from Streptococcus faecalis at 1.76 mM concentration.
The test system of test [4] is Enterococcus faecalis. Briefly: Ability to inhibit the decarboxylation of L-phenyl-alanine using a crude enzyme preparation of phenylalanine decarboxylase (PAD) from Streptococcus faecalis, at 1.76 mM concentration.

One may read the inhibition as the share of the control response that was lost under treatment. In turn, `C[C@](N)(Cc1ccc(O)c(O)c1)C(=O)O` (racemic) gave an inhibition in the test with Enterococcus faecalis [1] of 8%.
In the case of `N[C@@H](Cc1ccc(Cl)cc1)C(=O)O` (racemic), the inhibition in the test with Enterococcus faecalis [2] was 24%.
In the test on Enterococcus faecalis [3], `NC1(C(=O)O)CC2CC[C@@H]1c1ccccc12` (stereo in doubt; 1a) returned an inhibition of 7%.
Take `NC1(C(=O)O)CC2CC[C@@H]1c1ccccc12` (stereo in doubt; 1b): the inhibition with Enterococcus faecalis [4] was found to be 8%.
